Source: patent publication US20070135448A1, “Use of cathepsin k inhibitors for treating of severe bone loss diseases” (priority 2003, published 2007)

How the values were obtained:
[1] = test system: ovariectomized (OVX) cynomolgus monkeys; experiment: DXA bone mineral density of lumbar spine and femur in OVX cynomolgus monkeys, 18 months oral treatment; type: in vivo, cynomolgus monkeys (Macaca fascicularis)
Method: The present, 18 month long study is performed in order to assess the effect of COMPOUND A on bone in a non-human primate model of osteoporosis.
(§1) One hundred purpose-bred female cynomolgus monkeys (Macaca fascicularis), 12-13 years of age with closed growth plates are used for this study conducted in compliance with GLP. Eighty animals underwent bilateral ovariectomy and monkeys assigned to the sham group (S) underwent sham surgery. They are dosed twice daily by oral gavage with vehicle (distilled water) or COMPOUND A maleate (COMPOUND A-AF) for 18 months (Table 1).
(§2) DXA (Dual Energy X-ray Absorptiometry) of the lumbar spine and femur is performed twice prior to and at 3 months intervals during treatment. Compression test of third lumbar vertebra and a three-point bending test for the midshaft femur are carried out according to standard procedures. In brief, the cranial and caudal ends of each vertebral body are cut off to obtain a vertebral body specimen with two parallel surfaces and a height of approximately 7 mm. Each specimen is placed between two plates and a load applied at a constant displacement rate of 6 mm/min until failure in an Instron Mechanical Testing Machine. The femur is placed on the lower supports of a three point bending fixture with the anterior side facing downward in an Instron Mechanical Testing Machine. Load is applied at a constant displacement rate of […] until failure.
(§3) All group data are first checked to ensure they meet the assumptions for parametric analysis (normality, homogeneity of variances). Data are transformed, if necessary, to meet the assumptions as closely as possible. Results using transformed data are used for interpretation. In general, data are analyzed by one-way analysis of variance (1-way ANOVA) for variables assessed only once during the treatment phase of the study. For variables assessed repeatedly during the treatment phase, a two-way (group, time) analysis of covariance (ANCOVA) with repeated measures on time is used. For each ANCOVA evaluation, average baseline data for individual animals is used as the covariate. Results are presented as Mean±SEM (standard error of mean).

[2] = test system: ovariectomized (OVX) cynomolgus monkeys; experiment: 3-point bending test of midshaft femur, OVX cynomolgus monkeys after 18 months treatment; type: in vivo, cynomolgus monkeys (Macaca fascicularis); conditions: mean ± SEM; for Max load: n = 19-20
Method: as §1, §2, §3

[3] = test system: ovariectomized (OVX) cynomolgus monkeys; experiment: Mineral apposition rate (MAR) at the femoral neck, OVX cynomolgus monkeys; type: in vivo, cynomolgus monkeys (Macaca fascicularis)
Method: as §1
Mineral apposition rate (MAR), an indicator of bone formation, is reduced at cancellous bone for the femoral neck by the mid and high dose (FIG. 6) consistent with the action of an inhibitor of bone turnover.

[4] = test system: ovariectomized (OVX) cynomolgus monkeys; experiment: Compression test of third lumbar vertebra (LV3), OVX cynomolgus monkeys after 18 months treatment; type: in vivo, cynomolgus monkeys (Macaca fascicularis)
Method: as §1
DXA (Dual Energy X-ray Absorptiometry) of the lumbar spine and femur is performed twice prior to and at 3 months intervals during treatment. Compression test of third lumbar vertebra and a three-point bending test for the midshaft femur are carried out according to standard procedures. In brief, the cranial and caudal ends of each vertebral body are cut off to obtain a vertebral body specimen with two parallel surfaces and a height of approximately 7 mm. […]
All group data are first checked to ensure they meet the assumptions for parametric analysis (normality, homogeneity of variances). […] In general, data are analyzed by one-way analysis of variance (1-way ANOVA) for variables assessed only once during the treatment phase of the study. For variables assessed repeatedly during the treatment phase, a two-way (group, time) analysis of covariance (ANCOVA) with repeated measures on time is used. […]

[5] = test system: ovariectomized (OVX) cynomolgus monkeys; experiment: Tolerability in the 18 month OVX cynomolgus monkey study; type: in vivo; conditions: for Tolerability: 18 months
Method: as §1
Ovariectomized (OVX) cynomolgus monkeys are treated orally for 18 months with 3, 10, or 50/30 mg/kg COMPOUND A maleate twice daily (bid).

[6] = test system: postmenopausal women; experiment: 12-week double-blind placebo controlled phase IIA study, biochemical markers of bone resorption and formation; type: in vivo, human
Method: In a 12-week treatment, multicenter, double-blind, randomized, placebo-controlled, parallel group, a dose-ranging, safety, tolerability and efficacy trial with Compound A in postmenopausal women, with 3 weeks follow-up is conducted.
The primary objectives of the study are to assess the effect of Compound A on biochemical markers of bone resorption and bone formation, and to evaluate its safety and tolerability profile. Secondary objectives are to assess the changes in biochemical markers after the end of treatment, and to study the pharmacokinetics of Compound A and its metabolite during and after 12 weeks of treatment.
The population of subjects is normal healthy postmenopausal women. The reason for not investigating osteopenic women is the following: The efficacy endpoints of the study are biochemical markers of bone turnover. These variables are not directly correlated with BMD in man. […] They are at least 5 years postinenopause, mainly because biomarkers are expected to fluctuate less in these women than in the perimenopause. […]
Four doses are tested, 5, 10, 25, and 50 mg od. The duration of the study is 12 weeks, with a 3-week follow-up, 12 weeks treatment allows to assess the timecourse of biomarkers of both, bone resorption and bone formation and to ascertain that a steady-state in biomarkers is achieved.

[7] = High group: 2 × 50 mg/kg/day 1st month, 2 × 30 months 2-18, oral
[8] = High group: 2 × 50 mg/kg/day 1st month, 2 × 30 months 2-18, oral, * p < 0.05 versus OVX
[9] = Low group: 2 × 3 mg/kg/day oral, 18 months
[10] = Low group: 2 × 3 mg/kg/day oral, 18 months, * p < 0.05 versus OVX
[11] = Mid group: 2 × 10 mg/kg/day oral, 18 months

CCCN1CCN(c2ccc(C(=O)NC3(C(=O)NCC#N)CCCCC3)cc2)CC1 [Compound A, N-[1-(cyanomethyl-carbamoyl)-cyclohexyl]-4-(4-propyl-piperazin-1-yl)-benzamide]
Whole femur BMD (DXA) compared to group O (OVX) ([1]; all three dose levels, over the whole 18 months period): significant increase
Lumbar spine LV1-4 BMD (DXA), effect versus OVX ([1]; all three doses (3, 10, 50/30 mg/kg bid), 18 months, p<0.05 versus OVX): inhibit the effect of OVX
Lumbar spine LV1-4 BMD (DXA), efficacy of group H relative to other doses ([1]; group H, 50/30 mg/kg bid): tended to be less efficacious
Anterior-posterior diameter of the femur midshaft ([1]; groups L and H versus groups S and O): tends to be larger
Whole femur BMD (DXA) compared to sham ([1]; treated groups, significant at month 9 for groups L and H and at month 18 for group M): even above sham for most time points
Moment of inertia [2, 7]: 322 ± 20 mm^4
Ultimate strength [2, 7]: 196 ± 4 N/mm^2
Energy [2, 8]: 1276 ± 87 * mJ
Toughness [2, 8]: 3.6 ± 0.2 MJ/m³
Max load [2, 7]: 973 ± 45 N
Moment of inertia [2, 9]: 322 ± 20 mm^4
Ultimate strength [2, 9]: 195 ± 5 N/mm^2
Energy [2, 10]: 1305 ± 91 * mJ
Toughness [2, 10]: 3.7 ± 0.2 MJ/m³
Max load [2, 9]: 972 ± 38 N
Energy [2, 11]: 1126 ± 88 mJ
Moment of inertia [2, 11]: 290 ± 16 mm^4
Toughness [2, 11]: 3.3 ± 0.2 MJ/m³
Ultimate strength [2, 11]: 193 ± 3 N/mm^2
Max load [2, 11]: 894 ± 39 N
Mineral apposition rate (MAR) at the periosteal side of the femoral neck ([3]; all doses, even the low dose is active): highly significantly increased
Mineral apposition rate (MAR) at cancellous bone for the femoral neck ([3]; mid and high dose): reduced
Maximum load in LV3 compression test versus OVX ([4]; all treatment groups (L, M, H), 18 months): increase maximum load
Maximum load in LV3 compression test, group H ([4]; group H, 50/30 mg/kg bid, p<0.01 versus OVX, p<0.05 versus Sham): increased above the group S level
Food intake and body weight ([5]; 50 mg/kg bid oral, first month (then reduced to 30 mg/kg bid)): decreases in food intake and body weight
Tolerability ([5]; 3 and 10 mg/kg bid oral): well tolerated
Body weight gain ([5]; High group after reduction to 30 mg/kg bid, until end of study): remains significantly lower until the end of the study
Tolerability ([5]; OVX cynomolgus monkeys, oral twice daily, overall): generally well tolerated
Bone resorption marker serum CTX versus placebo ([6]; all doses except 5 mg (10, 25, 50 mg od), all time points, p<0.001): significant difference
Action on bone resorption marker (sCTX1) ([6]; postmenopausal women, 5, 10, 25, 50 mg od, 12 weeks): potent and rapid action
Bone formation markers (serum osteocalcin, BSAP) over time ([6]; postmenopausal women, 12 weeks): the decrease of suppression is less than that seen with the bone resorption markers
Other resorption biomarkers (serum NTX, urinary NTX) ([6]; postmenopausal women, 12 weeks): support results seen with serum CTX
